Laboratory results as given in patent US20110294897A1, “Treating Xerophthalmia With Compounds Increasing Meibomian Gland Secretion” (Bridge Pharma, Inc., priority 2009, published 2011).

What was measured:
[1] = test system: Meibomian gland secretion; experiment: Meibomian gland secretion in vivo (Meibometer), other agonists
Experimental: Meibomian gland secretion was measured with a Meibometer (Courage-Khazaka Electronic GmbH, 50829 Cologne) and was increased in vivo as described in Examples 6 and 7, hereinafter.

[2] = solubility in water; format: physicochemical
[3] = biological target: T1, human β3 receptors (Homo sapiens, UniProt P13945); experiment: human β3 adrenergic receptor binding, [125I]CYP
T1 construct: expressed in transfected cells; host or cells: SK-N-MC cells
Text: The specific ligand binding to the receptors is defined as the difference between the total binding and the nonspecific binding determined in the presence of an excess of unlabelled ligand.

[4] = test system: intraocular pressure; experiment: night-time intraocular pressure in Dutch-Belted rabbits; format: in vivo, rabbit; details: for increase of IOP: night-time IOP, ocular instillation
Experimental: Intraocular pressure (IOP) in rabbits is considerably higher during the night than during the day. The present experiments were conducted in Dutch-Belted rabbits in which IOP was higher during daytime as a consequence of switching the night/day cycle by exposing the animals to 12 hours of light during the night and 12 hours of darkness during daytime. […]

[5] = test system: Meibomian gland secretion; experiment: Meibomian gland secretion (Meibometer) after intravenous infusion in conscious beagle dogs; format: in vivo, dog; details: for Meibomian gland secretion: pre-infusion 248±9 MU
Experimental: . A Meibometer (MB550, Courage-Khazaka GmbH, Koln, Germany) was used to measure the delivery rate of lipids from the Meibomian glands. The measurements were performed in conscious beagle dogs. To reduce variability all studies were performed by a single individual, who had obtained extensive training with the instrumentation and was used to the handling of conscious laboratory dogs. The methodology has been described by Benz, P., et al. 2008, which publication is hereby included by reference, although new and improved computer software was used in the present studies.

[6] = test system: intraocular pressure; experiment: normal intraocular pressure in Dutch-Belted rabbits; format: in vivo, rabbit; details: 4.1% in saline, twice daily for 5 days
Experimental: Intraocular pressure was measured twice daily using the methodology stated above.

[7] = test system: Meibomian gland secretion; experiment: Meibomian lipid secretion (Meibometer) after ocular instillation in conscious beagle dogs; format: in vivo, dog; details: Day 3, 4.0 percent in saline, single eye drops three times daily; vehicle 174 MU
Experimental: A Meibometer was used to measure the delivery rate of lipids from the Meibomian glands. The measurements were performed in conscious beagle dogs and the test methodology is described above (Example 6). In these experiments, Meibomian secretion was measured in saline vehicle-treated dogs and in groups of dogs that were treated with a test article, daily at about 9 AM, 11 AM and 1 PM with single eye drops. […] Both eyes were treated and a total of six dogs were used for each treatment group.

[8] = test system: intraocular pressure; experiment: intraocular pressure in rabbits with glucose-elevated IOP; format: in vivo, rabbit; details: 10 μL instilled, 12-15 minutes after dosing
Experimental: Intraocular pressure (IOP) was increased in conscious rabbits by intravenous injections of glucose. The test compound was administered by instillation into the conjunctival sac immediately after the glucose injection and all measurements were made approximately 12-15 minutes after dosing. […] Thus, 10 μL of solutions containing 3.5 or 7.0 or 14.0 mg/ml in Tears Naturale® were instilled into the conjunctival sac. Tears Naturale® was used as control solution. TOP was measured using a manometrically calibrated BIO-RAD Digilab pneumatonometer. Tetracaine (10 μl, 0.5%) was applied to the cornea before the IOP measurements. N=7 Dutch Belted rabbits/group (2-4 kg; M and F).

[9] = test system: lacrimal gland secretion; experiment: lacrimal secretion (Schirmer) after intravenous administration in conscious rabbits; format: in vivo, rabbit
Experimental: In short, Schirmer strips are strips of filter papers, which are in part inserted into the conjunctival sac and in part hanging out from the conjunctival sac. The Schirmer strips absorb the watery tear fluid as can be observed as wetting of the strips. The length of the wetted area is measured and is an indicator of the amount of available tear fluid in the conjunctival sac. […] The average pre-dose value (from three Schirmer readings in each animal) was compared with the average of four readings during the infusions of R-salbutamol.

[10] = test system: eyes of New Zealand White rabbits; experiment: ocular irritation, Draize scoring in New Zealand White rabbits
Experimental: As a vehicle control 0.1 ml of 0.9% sodium chloride for injection (B. Braun; Lot No. J9A692) was instilled in the conjunctival sac of the left eye of all the rabbits. […] Draize scoring was assessed 30 minutes, 4 hours and 24 hours after the instillations of the placebo control (saline) and the test article solutions.
The grades of ocular reaction (conjunctivae, cornea, and iris) were determined at each examination.

[11] = test system: patients; details: according to the manufacturer; cited from earlier work

T1 sequence (P13945 whole entry): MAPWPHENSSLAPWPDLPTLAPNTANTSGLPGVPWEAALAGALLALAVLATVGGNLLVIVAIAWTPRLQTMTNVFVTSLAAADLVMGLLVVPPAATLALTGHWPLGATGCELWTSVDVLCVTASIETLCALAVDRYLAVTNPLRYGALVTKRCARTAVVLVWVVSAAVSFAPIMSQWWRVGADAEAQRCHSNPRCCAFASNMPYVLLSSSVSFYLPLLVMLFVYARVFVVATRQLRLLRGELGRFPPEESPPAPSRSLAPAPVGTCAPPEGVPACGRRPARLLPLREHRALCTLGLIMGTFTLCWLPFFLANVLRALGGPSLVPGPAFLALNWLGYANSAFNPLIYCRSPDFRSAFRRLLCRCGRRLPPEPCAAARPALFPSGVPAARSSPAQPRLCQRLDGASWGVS

For `CC(CCc1ccc(O)cc1)NCC(O)c1ccc(O)cc1` (racemic) [RR/SR ractopamine, ractopamine], the “Meibomian gland secretion in vivo” value [1] was “ability to increase Meibomian gland secretion in vivo”.

For `CC(C)(C)NCC(O)c1ccc(O)c(CO)c1` (racemic) [salbutamol, a′[(tert-butylamino)methyl]-4-hydroxy-m-xylene-a,a′-diol], the solubility in water [2] was “readily soluble in water”, the “affinity for beta-3 receptors” value [3] was “practically no affinity” and the “Δ mmHg, nighttime intraocular pressure” value ([4]; RS-Hi 2.0%, 1 PM) was −7 mmHg. For the same compound, the “Δ mmHg, nighttime intraocular pressure” value ([4]; RS-Hi 2.0%, 3 PM) was −4 mmHg, the “Δ mmHg, nighttime intraocular pressure” value ([4]; RS-Hi 2.0%, 5 PM) was −0 mmHg and the “Δ mmHg, nighttime intraocular pressure” value ([4]; RS-Hi 2.0%, 9:00 (instillation)) was 0 mmHg. For the same compound, the “Δ mmHg, nighttime intraocular pressure” value ([4]; RS-Hi 2.0%, 9:30) was −9 mmHg, the “Δ mmHg, nighttime intraocular pressure” value ([4]; RS-Hi 2.0%, 10 AM) was −9 mmHg and the “Δ mmHg, nighttime intraocular pressure” value ([4]; RS-Hi 2.0%, 11 AM) was −9 mmHg. The “Δ mmHg, nighttime intraocular pressure” value ([4]; RS-Lo 0.67%, 1 PM) was −5 mmHg, the “Δ mmHg, nighttime intraocular pressure” value ([4]; RS-Lo 0.67%, 3 PM) was −2 mmHg and the “Δ mmHg, nighttime intraocular pressure” value ([4]; RS-Lo 0.67%, 5 PM) was −0.5 mmHg. The “Δ mmHg, nighttime intraocular pressure” value ([4]; RS-Lo 0.67%, 9:00 (instillation)) was 0 mmHg, the “Δ mmHg, nighttime intraocular pressure” value ([4]; RS-Lo 0.67%, 9:30) was −6 mmHg and the “Δ mmHg, nighttime intraocular pressure” value ([4]; RS-Lo 0.67%, 10 AM) was −6 mmHg. The “Δ mmHg, nighttime intraocular pressure” value ([4]; RS-Lo 0.67%, 11 AM) was −6 mmHg and the “increase of IOP” value [4] was “Neither racemic nor isomeric salbutamol increased IOP”.

In the case of `CC(C)(C)NC[C@H](O)c1ccc(O)c(CO)c1` [R-salbutamol, R(−)-isomer of a′[(tert-butylamino)methyl]-4-hydroxy-m-xylene-a,a′-diol], the Meibomian gland secretion ([5]; during twenty-minute iv infusion 30 μg/kg/min) is reported as 235±23 MU, the “difference between pre-infusion and post-infusion secretion” value ([5]; iv 30 μg/kg/min for 20 min) is reported as “approximately 27%” and the Meibomian gland secretion ([5]; ten minutes post-infusion) is reported as 316±26 MU. For the same compound, the “increase in IOP” value [6] was “No increase in IOP was observed”, the “Meibomian secretion, mean” value [7] was 304 MU and the “intraocular pressure lowered (vs control animals), mean±SEM” value ([8]; 3.5 mg/ml) was 5.5±1.3 mmHg. For the same compound, the “intraocular pressure lowered (vs control animals), mean±SEM” value ([8]; 7.0 mg/ml) was 6.7±1.5 mmHg, the “intraocular pressure lowered (vs control animals), mean±SEM” value ([8]; 14.0 mg/ml) was 5.8±1.3 mmHg and the “wetting of the Schirmer strips” value ([9]; during iv infusion 30 μg/kg/min for 20 min, predose 20.3±1.6, six eyes) was 33.8±2.3 millimeter. For the same compound, the “increased wetting of the Schirmer strips” value ([9]; iv 30 μg/kg/min, versus predose) was “approximately 66%”, the “Mean Post-Instillation Irritation Score” value ([10]; 0.1% in saline, 4 Hours) was 0 and the “Mean Post-Instillation Irritation Score” value ([10]; 0.1% in saline, 24 Hours) was 0. For the same compound, the “Mean Post-Instillation Irritation Score” value ([10]; 0.1% in saline, 30 Minutes) was 0, the “Mean Post-Instillation Irritation Score” value ([10]; 0.5% in saline, 4 Hours) was 0 and the “Mean Post-Instillation Irritation Score” value ([10]; 0.5% in saline, 24 Hours) was 0. For the same compound, the “Mean Post-Instillation Irritation Score” value ([10]; 0.5% in saline, 30 Minutes) was 0, the “Mean Post-Instillation Irritation Score” value ([10]; 5.0% in saline, 4 Hours) was 0 and the “Mean Post-Instillation Irritation Score” value ([10]; 5.0% in saline, 24 Hours) was 0. For the same compound, the “Mean Post-Instillation Irritation Score” value ([10]; 5.0% in saline, 30 Minutes) was 0, the ocular irritancy ([10]; single-dose, in saline, concentrations up to 5%) was “not irritants” and the “concentration dissolved in water” value [2] was “in excess of five percent by weight”. For the same compound, the solubility in water [2] was “readily soluble in water”, the “affinity for beta-3 receptors” value [3] was “practically no affinity” and the “Δ mmHg, nighttime intraocular pressure” value ([4]; R-Hi 1.0%) was −11 mmHg. The “Δ mmHg, nighttime intraocular pressure” value ([4]; R-Hi 1.0%, 1 PM) was −10 mmHg, the “Δ mmHg, nighttime intraocular pressure” value ([4]; R-Hi 1.0%, 3 PM) was −3 mmHg and the “Δ mmHg, nighttime intraocular pressure” value ([4]; R-Hi 1.0%, 5 PM) was −2 mmHg. The “Δ mmHg, nighttime intraocular pressure” value ([4]; R-Hi 1.0%, 9:00 (instillation)) was 0 mmHg, the “Δ mmHg, nighttime intraocular pressure” value ([4]; R-Hi 1.0%, 9:30) was −7 mmHg and the “Δ mmHg, nighttime intraocular pressure” value ([4]; R-Hi 1.0%, 10 AM) was −8 mmHg. The “Δ mmHg, nighttime intraocular pressure” value ([4]; R-Lo 0.33%, 1 PM) was −4 mmHg, the “Δ mmHg, nighttime intraocular pressure” value ([4]; R-Lo 0.33%, 3 PM) was −3 mmHg and the “Δ mmHg, nighttime intraocular pressure” value ([4]; R-Lo 0.33%, 5 PM) was −2.5 mmHg. The “Δ mmHg, nighttime intraocular pressure” value ([4]; R-Lo 0.33%, 9:00 (instillation)) was 0 mmHg, the “Δ mmHg, nighttime intraocular pressure” value ([4]; R-Lo 0.33%, 9:30) was −7 mmHg and the “Δ mmHg, nighttime intraocular pressure” value ([4]; R-Lo 0.33%, 10 AM) was −9 mmHg. The “Δ mmHg, nighttime intraocular pressure” value ([4]; R-Lo 0.33%, 11 AM) was −9 mmHg and the “increase of IOP” value [4] was “Neither racemic nor isomeric salbutamol increased IOP”.

For `CC(C)(C)NC[C@@H](O)c1ccc(O)c(CO)c1` [S-salbutamol], the “Meibomian gland secretion in vivo” value [1] was “may also increase Meibomian gland secretion”.

In the case of `CNCC(O)c1ccc(OC(=O)C(C)(C)C)c(OC(=O)C(C)(C)C)c1` (centres unmarked) [dipivefrin], the “patients with epinephrine intolerance” value [11] is given as 3%.

For `CNC[C@H](O)c1ccc(O)c(O)c1` [epinephrine], the “patients with epinephrine intolerance” value [11] is given as 55%.

For `CC(C)(C)NC[C@H](O)COc1nsnc1N1CCOCC1` [timolol], the “intraocular pressure lowered (vs control animals), mean±SEM” value ([8]; 3.5 mg/ml) was 4.7±1.3 mmHg, the “intraocular pressure lowered (vs control animals), mean±SEM” value ([8]; 7.0 mg/ml) was 4.6±1.0 mmHg and the “intraocular pressure lowered (vs control animals), mean±SEM” value ([8]; 14.0 mg/ml) was 4.7±1.3 mmHg.
